Assay results from PubChem BioAssay AID248 (DTP/NCI, 2004).
Several values for one entry are separate records, joined by “and”; a condition that tells them apart may be missing. Equal values may be shown once. Toxic doses and inconclusive results are not listed. Cut-off read from the data, not from the text of the source: active = T/C of 150% or more; inactive = T/C below 125%.

System: L1210 leukemia ip in BDF1 mice, survival T/C
Assay: NCI In Vivo Anticancer Drug Screen. Data for tumor model L1210 Leukemia (intraperitoneal) in B6D2F1 (BDF1) mice
Settings: endpoint: mean survival time, higher = longer survival
How it was run: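 Transplanted-tumor mice were given test agent; controls received vehicle only. Survival readings from the two groups were divided (treated over control).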

[1] = dose: 100.0 mg/kg/injection, schedule: Q01DX009 (ip), vehicle: saline with Tween-80
[2] = dose: 100.0 mg/kg/injection, schedule: Q04DX003 (ip), vehicle: saline
[3] = dose: 200.0 mg/kg/injection, schedule: Q01DX009 (ip), vehicle: saline with Tween-80
[4] = dose: 400.0 mg/kg/injection, schedule: Q01DX009 (ip), vehicle: saline with Tween-80
[5] = dose: 100.0 mg/kg/injection, schedule: Q01DX009 (ip), vehicle: saline
[6] = dose: 100.0 mg/kg/injection, schedule: Q04DX002 (ip), vehicle: saline with Tween-80
[7] = dose: 200.0 mg/kg/injection, schedule: Q01DX009 (ip), vehicle: saline
[8] = dose: 200.0 mg/kg/injection, schedule: Q04DX002 (ip), vehicle: saline with Tween-80
[9] = dose: 400.0 mg/kg/injection, schedule: Q04DX002 (ip), vehicle: saline with Tween-80
[10] = dose: 100.0 mg/kg/injection, schedule: Q01DX009 (ip), vehicle: Klucel (hydroxypropylcellulose) (HPC)
[11] = dose: 100.0 mg/kg/injection, schedule: Q04DX003 (ip), vehicle: Klucel (hydroxypropylcellulose) (HPC)
[12] = dose: 200.0 mg/kg/injection, schedule: Q01DX009 (ip), vehicle: Klucel (hydroxypropylcellulose) (HPC)
[13] = dose: 200.0 mg/kg/injection, schedule: Q04DX003 (ip), vehicle: Klucel (hydroxypropylcellulose) (HPC)
[14] = dose: 400.0 mg/kg/injection, schedule: Q04DX003 (ip), vehicle: Klucel (hydroxypropylcellulose) (HPC)
[15] = dose: 100.0 mg/kg/injection, schedule: Q04DX003 (ip), vehicle: saline with Tween-80
[16] = dose: 100.0 mg/kg/injection, schedule: Q01DX001 (ip), vehicle: saline with Tween-80
[17] = dose: 200.0 mg/kg/injection, schedule: Q01DX001 (ip), vehicle: saline with Tween-80
[18] = dose: 400.0 mg/kg/injection, schedule: Q01DX001 (ip), vehicle: saline with Tween-80
[19] = dose: 100.0 mg/kg/injection, schedule: Q01DX001 (ip), vehicle: saline
[20] = dose: 200.0 mg/kg/injection, schedule: Q04DX003 (ip), vehicle: saline with Tween-80
[21] = dose: 400.0 mg/kg/injection, schedule: Q04DX003 (ip), vehicle: saline with Tween-80
[22] = dose: 50.0 mg/kg/injection, schedule: Q01DX001 (ip), vehicle: saline
[23] = dose: 50.0 mg/kg/injection, schedule: Q01DX009 (ip), vehicle: saline

Measured: T/C

CCCCCCCC(=O)CCCCC
inactive: [1] 102 % of control | [2] 98 % of control | [3] 109 % of control | dose: 200.0 mg/kg/injection, schedule: Q04DX003 (ip), vehicle: saline 96 % of control | [4] 100 % of control | dose: 400.0 mg/kg/injection, schedule: Q04DX003 (ip), vehicle: saline 93 % of control

COC(=O)C1=C(C(=O)OC)C2CCC1O2
inactive: [5] 112 % of control | [6] 105 % of control | [7] 106 % of control | [8] 101 % of control | dose: 400.0 mg/kg/injection, schedule: Q01DX009 (ip), vehicle: saline 95 % of control | [9] 94 % of control

COc1ccc(CNC(=O)NCCCl)cc1OC
inactive: [10] 102 % of control | [11] 115 % of control | [12] 103 % of control | [13] 113 % of control | [14] 101 % of control

N#C/C=C/C#N
inactive: [15] 92 % of control

CC(=O)[C@@]1(O)CC[C@H]2[C@@H]3CCC4=CC(=O)CC[C@]4(C)[C@@]3(F)[C@@H](O)C[C@@]21C
inactive: dose: 100.0 mg/kg/injection, schedule: Q01DX Z (sc), vehicle: steriod suspending solution 98 % of control | dose: 200.0 mg/kg/injection, schedule: Q01DX Z (sc), vehicle: steriod suspending solution 98 % of control | dose: 400.0 mg/kg/injection, schedule: Q01DX Z (sc), vehicle: steriod suspending solution 100 % of control

COc1ccc(Cl)cc1NC(=O)C(Cl)(Cl)Cl
inactive: dose: 50.0 mg/kg/injection, schedule: Q01DX001 (ip), vehicle: saline with Tween-80 102 % of control | [16] 88 % of control and 92 % of control | [1] 94 % of control | [6] 100 % of control and 101 % of control | [17] 91 % of control | [3] 95 % of control and 89 % of control | [8] 93 % of control and 98 % of control | [18] 89 % of control | [9] 93 % of control and 94 % of control

O=C(O)c1cc([N+](=O)[O-])c(C(=O)O)c([N+](=O)[O-])c1
inactive: dose: 75.0 mg/kg/injection, schedule: Q01DX001 (ip), vehicle: other 94 % of control | dose: 150.0 mg/kg/injection, schedule: Q01DX001 (ip), vehicle: other 95 % of control | dose: 300.0 mg/kg/injection, schedule: Q01DX001 (ip), vehicle: other 96 % of control

CCSc1n[nH]c(=O)nc1NN
inactive: dose: 10.0 mg/kg/injection, schedule: Q01DX001 (ip), vehicle: acetone 102 % of control | dose: 20.0 mg/kg/injection, schedule: Q01DX001 (ip), vehicle: acetone 96 % of control | dose: 40.0 mg/kg/injection, schedule: Q01DX001 (ip), vehicle: acetone 96 % of control

CC(=O)c1ccccc1C(C)c1ccc(C)c2ccccc12 (stereo unspecified)
inactive: dose: 100.0 mg/kg/injection, schedule: Q04DX002 (ip), vehicle: Klucel (hydroxypropylcellulose) (HPC) 120 % of control | dose: 200.0 mg/kg/injection, schedule: Q04DX002 (ip), vehicle: Klucel (hydroxypropylcellulose) (HPC) 97 % of control | dose: 400.0 mg/kg/injection, schedule: Q04DX002 (ip), vehicle: Klucel (hydroxypropylcellulose) (HPC) 104 % of control

N#CC12OC1(C#N)C(=O)c1ccccc1C2=O (stereo unspecified)
inactive: dose: 75.0 mg/kg/injection, schedule: Q01DX001 (ip), vehicle: Klucel (hydroxypropylcellulose) (HPC) 92 % of control

CCCCSc1nc(=O)[nH]nc1SCc1ccccc1
inactive: [19] 98 % of control | dose: 200.0 mg/kg/injection, schedule: Q01DX001 (ip), vehicle: saline 93 % of control | dose: 400.0 mg/kg/injection, schedule: Q01DX001 (ip), vehicle: saline 95 % of control

O=C(O)Cc1ccc(Cl)cc1
inactive: dose: 75.0 mg/kg/injection, schedule: Q04DX003 (ip), vehicle: saline with Tween-80 93 % of control | [16] 98 % of control | dose: 150.0 mg/kg/injection, schedule: Q04DX003 (ip), vehicle: saline with Tween-80 96 % of control | [17] 95 % of control | dose: 300.0 mg/kg/injection, schedule: Q04DX003 (ip), vehicle: saline with Tween-80 87 % of control | [18] 91 % of control

CCCC[N+](C)(C)CCOC(=O)C1C2CC3OC(=O)C1C3C2 (stereo unspecified)
inactive: [2] 95 % of control

Cc1cc([N+](=O)[O-])ccc1S(=O)(=O)F
inactive: [15] 100 % of control

COc1c(C)c(C)c(OC(C)=O)c(C)c1Br
inactive: [15] 96 % of control | [20] 89 % of control | [21] 91 % of control

O=C(OC1(c2ccccc2)OC(=O)c2ccccc21)c1ccccc1C(=O)c1ccccc1 (stereo unspecified)
inactive: [15] 92 % of control | [20] 91 % of control

O=C(C1C2C=CC(C2)C1C(=O)N1CCOCC1)N1CCOCC1 (stereo unspecified)
inactive: [15] 107 % of control | [20] 102 % of control | [21] 107 % of control

CC(C)N(C(=O)c1ccc(C(=O)N(c2ccccc2)C(C)C)cc1)c1ccccc1
inactive: [1] 92 % of control | [15] 100 % of control | [3] 90 % of control | [20] 94 % of control | [4] 86 % of control | [21] 87 % of control

CCCCCCCCCCCCCC(=O)O
inactive: [11] 92 % of control | [13] 94 % of control | [14] 95 % of control

O=S(=O)(CCl)OCCCCOS(=O)(=O)CCl
inactive: dose: 31.5 mg/kg/injection, schedule: Q01DX009 (ip), vehicle: saline 108 % of control and 109 % of control | dose: 31.5 mg/kg/injection, schedule: Q01DX015 (ip), vehicle: saline 112 % of control | [22] 100 % of control | dose: 54.0 mg/kg/injection, schedule: Q01DX009 (ip), vehicle: saline 120 % of control and 124 % of control | dose: 90.0 mg/kg/injection, schedule: Q01DX009 (ip), vehicle: saline 124 % of control | dose: 90.0 mg/kg/injection, schedule: Q01DX015 (ip), vehicle: saline 124 % of control | [19] 111 % of control | dose: 100.0 mg/kg/injection, schedule: Q01DX015 (ip), vehicle: saline 108 % of control | dose: 133.0 mg/kg/injection, schedule: Q01DX001 (ip), vehicle: saline 104 % of control and 107 % of control and 121 % of control | dose: 150.0 mg/kg/injection, schedule: Q01DX009 (ip), vehicle: saline 104 % of control | dose: 200.0 mg/kg/injection, schedule: Q01DX015 (ip), vehicle: saline 97 % of control | dose: 300.0 mg/kg/injection, schedule: Q01DX001 (ip), vehicle: saline 104 % of control and 121 % of control

Cc1ccc(C)c(NC(=O)Oc2ccc(F)cc2Cl)c1
inactive: dose: 50.0 mg/kg/injection, schedule: Q01DX009 (ip), vehicle: Klucel (hydroxypropylcellulose) (HPC) 91 % of control | [10] 90 % of control | [11] 94 % of control | [12] 87 % of control | [13] 105 % of control

COC(=O)C1C(O)CCC2CN3CCc4c([nH]c5ccccc45)C3CC21 (stereo unspecified)
inactive: [22] 102 % of control | dose: 75.0 mg/kg/injection, schedule: Q01DX Z (ip), vehicle: carboxymethylcellulose (CMC) 92 % of control | [19] 91 % of control | dose: 150.0 mg/kg/injection, schedule: Q01DX Z (ip), vehicle: carboxymethylcellulose (CMC) 100 % of control

C=CCc1ccc(OC(=O)Nc2ccc(S(=O)(=O)N3CCCCC3)cc2)c(OC)c1
inactive: dose: 12.5 mg/kg/injection, schedule: Q01DX001 (ip), vehicle: other 98 % of control | dose: 25.0 mg/kg/injection, schedule: Q01DX001 (ip), vehicle: other 90 % of control | dose: 50.0 mg/kg/injection, schedule: Q01DX001 (ip), vehicle: other 90 % of control

CCCOC(C(=O)OC1CCN(C)CC1)(c1ccccc1)c1ccccc1
inactive: dose: 12.5 mg/kg/injection, schedule: Q01DX009 (ip), vehicle: saline 98 % of control | dose: 25.0 mg/kg/injection, schedule: Q01DX009 (ip), vehicle: saline 102 % of control | [23] 94 % of control

NCc1cc([N+](=O)[O-])ccc1Cl
inactive: [23] 101 % of control | [5] 95 % of control | [15] 92 % of control | [7] 97 % of control | [20] 103 % of control

Cc1ccc(Cl)cc1NS(=O)(=O)c1ccc2ccccc2c1
inactive: [1] 106 % of control | [15] 96 % of control | [3] 96 % of control | [20] 104 % of control | [4] 112 % of control | [21] 91 % of control
